Results published in article PMC6231127, “The structure of the deubiquitinase USP15 reveals a misaligned catalytic triad and an open ubiquitin-binding channel” (The Journal of Biological Chemistry, 2018).

Tests used:
USP15-D1D2 = target: T1, USP15-D1D2 (Homo sapiens, UniProt Q9Y4E8, DEL469-785); test: X-ray crystal structure of complex, […] Å; format: binding; conditions: co-crystal, 0.1 M Na-Hepes pH 7.0, 14% MPD, 20 °C; S1' site near BL2 loop; ligand density in one of two copies
T1 construct: two copies in the asymmetric unit

FL-USP15 = target: T2, FL-USP15 (Homo sapiens, UniProt Q9Y4E8); test: linear diubiquitin gel shift cleavage assay (SDS-PAGE, ImageJ); format: biochemical
T2 sequence (Q9Y4E8 2-952 isoform Q9Y4E8-2): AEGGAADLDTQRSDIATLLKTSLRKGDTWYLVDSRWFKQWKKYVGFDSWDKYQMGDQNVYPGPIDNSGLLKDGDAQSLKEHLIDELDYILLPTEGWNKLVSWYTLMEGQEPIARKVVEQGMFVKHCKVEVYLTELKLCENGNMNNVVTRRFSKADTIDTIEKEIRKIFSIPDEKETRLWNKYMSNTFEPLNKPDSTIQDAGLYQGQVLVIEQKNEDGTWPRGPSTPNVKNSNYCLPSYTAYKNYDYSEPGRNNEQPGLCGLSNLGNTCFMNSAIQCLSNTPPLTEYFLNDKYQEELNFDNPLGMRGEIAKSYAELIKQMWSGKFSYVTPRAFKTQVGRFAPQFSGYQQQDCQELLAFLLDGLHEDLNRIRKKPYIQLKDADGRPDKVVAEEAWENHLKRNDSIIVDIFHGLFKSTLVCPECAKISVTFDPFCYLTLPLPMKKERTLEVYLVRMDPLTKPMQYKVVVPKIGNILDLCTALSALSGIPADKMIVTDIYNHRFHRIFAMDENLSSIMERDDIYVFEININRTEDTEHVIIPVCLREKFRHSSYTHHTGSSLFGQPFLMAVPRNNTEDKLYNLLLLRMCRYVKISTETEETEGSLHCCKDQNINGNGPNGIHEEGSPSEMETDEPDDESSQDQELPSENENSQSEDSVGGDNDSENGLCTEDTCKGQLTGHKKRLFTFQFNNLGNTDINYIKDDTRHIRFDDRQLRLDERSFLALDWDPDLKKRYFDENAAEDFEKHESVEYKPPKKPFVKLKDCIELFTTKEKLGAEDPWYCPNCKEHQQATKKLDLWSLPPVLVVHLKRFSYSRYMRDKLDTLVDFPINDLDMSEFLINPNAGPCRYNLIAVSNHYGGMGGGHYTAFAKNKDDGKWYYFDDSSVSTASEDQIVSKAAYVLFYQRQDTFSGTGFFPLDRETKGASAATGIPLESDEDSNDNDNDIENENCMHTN

O=C1c2c(O)ccc(O)c2C(=O)c2c(NCCNCCO)ccc(NCCNCCO)c21 [mitoxantrone, 1,4-dihydroxy-5,8-bis[2-(2-hydroxyethylamino)ethylamino]anthracene-9,10-dione]
X-ray crystal structure of complex, 2.09 Å (USP15-D1D2): This USP15–mitoxantrone complex structure revealed predominantly hydrophobic interactions between mitoxantrone and USP15 residues
IC50 (FL-USP15): 33 ± 11 µM
